Results from PMC10179701, “Towards Protection of Nucleic Acids from Herbicide Attack: Self-Assembly of Betaines Based on Pillar[5]arene with Glyphosate and DNA” (International Journal of Molecular Sciences, 2023).
Marks after values point to notes of the source that are not given here.

Assays:
DNA from salmon sperm = assay: UV-Vis spectrophotometric titration, association with DNA from salmon sperm; assay type: binding; settings: 1:1 complex, Tris-HCl buffer pH 7.44, CDNA 2.5 × 10^–7 M, BindFit
Description: The interaction of GIS with a series of synthesized pillar[5]arenes 1–4 and DNA was studied by UV-Vis spectroscopy. UV-Vis spectroscopy is a universal method to study the complex properties of synthetic receptors. The interaction of GIS with DNA from salmon sperm was initially studied (Figure 5). DNA from salmon sperm was chosen as a model substrate due to its relatively low molecular weight and small size. The experiments were carried out in a Tris-HCl buffer system (pH = 7.44).
The association constants were determined by spectrophotometric titration to quantify the interaction of DNA with GIS. The UV-Vis spectra of the DNA–GIS system were recorded in such a way that the DNA concentration remained constant (2.5 × 10^–7 M), and the herbicide concentration ratio increased from 1:0.3 to 1:10 (Figure 5b). The obtained experimental data were processed by the BindFit program. The association constant of a 1:1 complex was calculated (Figure S23). The logarithm of the association constant of DNA with GIS was determined as lgKa = 4.92. […] However, in this case, the association constant of the complexes was determined with a large error.
Further, the interaction of macrocycles 1–4 with the DNA from salmon sperm in Tris-HCl was studied by UV-Vis spectroscopy. […] The association constant of compound 4-DNA complex was determined by spectrophotometric titration. […] The logarithm of the association constant of pillar[5]arene 4 with the DNA was determined as lgKa (4–DNA) = 5.24.
The association constant of compound 1-DNA complex was also determined by spectrophotometric titration (Figure S25b). The logarithm of the association constant of pillar[5]arene 1 with DNA was determined as lgKa(1–DNA) = 4.88 (Figure S27). […]
buffer solution. The UV spectra of the solutions were then recorded. The stability constant of complex was calculated by Bindfit. […]
volume of 3 mL with Tris‐HCl buffer solution. The UV spectra of the solutions were then recorded. The stability constant of each complex was calculated by Bindfit. […]
stability constant of complex was calculated by Bindfit. […]

A549 cells [1] = assay: MTT assay, combined action of macrocycles with GIS on A549 cells; assay type: cell-based, human; settings: A549, pillararene 1 × 10^–5 M with GIS 3.47 × 10^–2 M
Description: The ability to inhibit the viability and proliferative activity of A549 cells of macrocycles 1–4 in the presence of GIS was studied using the MTT assay. […] The developed approach opens up the possibility of creating pillar[5]arene-based herbicide antidotes. […]
fresh one with the addition of the test substances.
Then, the medium was aspirated from the wells
and 100 μL of dimethyl sulfoxide was added.
the formazan crystals to dissolve. […]
substances. […] After 24 h of incubation cells were […]

LEC cells = assay: MTT test, LEC cells
Description: (§1) The next stage of this work was the study of pillar[5]arenes 1–4 ability to inhibit the viability and proliferative activity of embryonic lung epithelial (LEC) and human lung adenocarcinoma (A549) cells using the MTT test.
(§2) Further, the ability of GIS to inhibit the viability and proliferative activity of LEC and A549 cells was studied by the MTT test. […] The average inhibitory concentration (IC50) was calculated for GIS (Table 3). […]
(§3) 1.6. Cytotoxicity of pillar[5]arenes 1–4, GIS and their mixtures on A549 and LEC Cell Lines […]
(§4) activity of LEC cells and A549 cells was investigated using the MTT test according to [2]. A549 – human alveolar adenocarcinoma cell line (ATCC, Rockville, Maryland, USA) and cow embryo lung epithelial (LEC) cells (Animal Cell Culture Collection of Russian Academy of Agricultural Science, Kazan, Russia) were cultured in DMEM (GIBCO, Waltham, MA, USA) medium supplemented with 10% serum and 100 units/mL of penicillin (PanEco, Moscow, Russia) and streptomycin (PanEco, Moscow, Russia) in a humidified atmosphere with 5% CO2 at 37 °C. Cells were seeded in 96‐well plates at a concentration of 10^4 cells/well. After 24 h of cultivation, the medium was removed from the wells and replaced with a fresh one with the addition of the test substances. The volume of the culture medium in the wells was 100
(§5) μL. After 24 h incubation of cells in the presence of substances, the medium in the wells was replaced with a fresh one containing MTT reagent at a final concentration of 0.5 mg/mL. The cells were incubated with MTT for 4 h at 37 °C in an atmosphere of 5% CO2. Then, the medium was aspirated from the wells and 100 μL of dimethyl sulfoxide was added. Probes were incubated at 37 °C for 15 min in the dark for the formazan crystals to dissolve. The optical density of the formazan solution in the wells was measured using a plate reader (BioRad xMarkTM Microplate Spectrophotometer, USA) at a wavelength of 570 nm.
(§6) Three series of experiments were carried out with at least 8 replications for each variant in the series. […]

[2] = Dynamic light scattering of macrocycle aggregates in water; assay type: physicochemical; settings: H2O, 298 K
Description: The next stage of the work was the study of aggregation properties of both previously synthesized ester derivatives of amino acids 1 and 2, and macrocyclic betaine derivatives 3 and 4 by dynamic light scattering (DLS). The study was carried out in water in the 1 × 10^–6–1 × 10^–4 M concentration range (Figures S11–S22). The size of associates increases with decreasing macrocycle 1 concentration in solution (Table 1). A different pattern is observed for betaine derivative 3. Thus, the particles become coarser, and the polydispersity index (PDI) of the systems increased with an increase in compound 3 concentration, which is probably due to the formation of β-sheets by oligopeptide substituents. The presence of two oppositely charged fragments in one substituent leads to the fact that compound 3 becomes similar to surfactant molecules in terms of its aggregation properties.

A549 cells [3] = assay: MTT test, A549 cells
Description: as §1, §2, §3, §4, §5, §6

lgKa, logarithm of the association constant with DNA (DNA from salmon sperm): 5.24
polydispersity index (PDI) ([2]; 1 × 10^–4 M): 0.36
size of aggregates d ([2]; 1 × 10^–4 M): 127 ± 16 nm
polydispersity index (PDI) ([2]; 1 × 10^–5 M): 0.41
size of aggregates d ([2]; 1 × 10^–5 M): 218 ± 10 nm
polydispersity index (PDI) ([2]; 1 × 10^–6 M): 0.42
size of aggregates d ([2]; 1 × 10^–6 M): 457 ± 65 nm
IC50 (A549 cells [3]; A549, MTT, 24 h): >100 * μg/mL
Structure (SMILES): C[N+](C)(CCCNC(=O)COc1cc2c(OCC(=O)NCCC[N+](C)(C)CC(=O)N[C@@H](Cc3ccccc3)C(=O)[O-])cc1Cc1cc(OCC(=O)NCCC[N+](C)(C)CC(=O)N[C@@H](Cc3ccccc3)C(=O)[O-])c(cc1OCC(=O)NCCC[N+](C)(C)CC(=O)N[C@@H](Cc1ccccc1)C(=O)[O-])Cc1cc(OCC(=O)NCCC[N+](C)(C)CC(=O)N[C@@H](Cc3ccccc3)C(=O)[O-])c(cc1OCC(=O)NCCC[N+](C)(C)CC(=O)N[C@@H](Cc1ccccc1)C(=O)[O-])Cc1cc(OCC(=O)NCCC[N+](C)(C)CC(=O)N[C@@H](Cc3ccccc3)C(=O)[O-])c(cc1OCC(=O)NCCC[N+](C)(C)CC(=O)N[C@@H](Cc1ccccc1)C(=O)[O-])Cc1cc(OCC(=O)NCCC[N+](C)(C)CC(=O)N[C@@H](Cc3ccccc3)C(=O)[O-])c(cc1OCC(=O)NCCC[N+](C)(C)CC(=O)N[C@@H](Cc1ccccc1)C(=O)[O-])C2)CC(=O)N[C@@H](Cc1ccccc1)C(=O)[O-] [Compound 4, 4,8,14,18,23,26,28,31,32,35-Decakis-[(N-[3’-dimethyl({oxidocarbonyl[S-benzyl]methyl}aminocarbonylmethyl)ammonio]propyl)aminocarbonylmethoxy]-pillar[5]arene]
change of toxicity on combined action with GIS (A549 cells [1]): No significant differences
IC50 (LEC cells; MTT, 24 h): >100 * μg/mL
cytotoxic activity (LEC cells; concentration range 2–100 μg/mL): did not show statistically significant cytotoxic activity
cytotoxic activity (A549 cells [3]; A549, concentration range 2–100 μg/mL): did not show statistically significant cytotoxic activity
